We go through three compounds from patent US10064858B2, “Methods and compositions for treating bacterial infections with iron chelators” (THE UNITED STATES OF AMERICA, AS REPRESENTED BY THE …, priority 2011, dated 2018).

≈ marks a conversion by molar mass, not a printed value.

Data set [1] relates to A. baumannii strain AB19606. Kind of data set: Growth (OD600) with chelator, Rifampin or both. The class given is cell-based. As to conditions: 1.5×MIC Apo6619 in combination with ¾×MIC Rifampicin. How it is done: A. baumannii strain AB19606 was grown in CAMHB and challenged with 1.5×MIC compound 4 (Var) or 1.5×MIC Triapine (Tri) with or without 0.75×MIC Rifampin (Rif). Growth was estimated by absorbance at 600 nm (y-axis) at 0 or 24 hours.

The subject of data set [2] is WBA 2090 E. faecilium. Kind of data set: MIC, similar assays. It is filed as cell-based. How it is done:
Individual MICs were determined following the microdilution method recommended by CLSI in cationic-adjusted Mueller-Hinton Broth (CAMHB), or M9 media. […] Tests were performed in triplicate. MIC of iron chelators were determined for noscomial ESKAPE pathogens.

Data set [3] deals with PA PAO1, PA 27853. Put plainly: Checkerboard assay, chelator with antibiotic (FIC). It is filed as cell-based, P. aeruginosa. The source says:
Drug interactions were initially evaluated with the “checkerboard” microdilution design, which provided a matrix of all drug combinations assayed in terms of fractions of the previously determined MIC. The checkerboard microdilution design is described in R. J. Tallarida, “Drug Synergism: Its Detection and Applications,” Journal of Pharmacology and Experimental Therapeutics, 865-872 (2001); and in R. L. White, et al., (1996), supra. FIGS. 39A and 39B show the wellplates having different concentrations of iron chelator and antibiotic, as labeled along the x-axis and y-axis.
The checkerboard assay was used to asses other combinations of iron chelators and antibiotics. The fractional inhibitory concentration index (FIC), which was calculated as follows: FIC=(MIC A in combination/MIC A)+(MIC B in combination/MIC B). Interaction was defined as synergistic if the FIC was <1.0, preferably <0.5, no interaction if the FIC was >1.0 and <4.0, and antagonistic if the FIC was >4.0.
The assay was run against the multi-drug resistant bacterial species AB 19606, AB 17978, KP ndm, PA PAO1, PA 27853, EC 35718, and EC 43888. Blank spaces indicate concentrations not tested. […] Against the species PA PAO1 and PA 27853, all the antibiotics except for Ami.

In data set [4] the test system is five clinical isolates of A. baumannii and AB19606. Put plainly: Growth (OD600) of six A. baumannii strains with VK28 in low-iron M9 media. The class given is cell-based. As to conditions: 200 μM VK28 after 4 hr of growth, 24 hr. The protocol:
Five clinical isolates of A. baumannii were obtained from Walter Reed Army Medical Center (WRAMC) and compared to the laboratory strain AB19606 from the ATCC. Strains were challenged with either 0 μM or 200 μM VK28 in low-iron M9 media after 4 hr of growth. Growth was estimated by absorbance at 600 nm every 4 hr for 24 hr. Dashed lines represent the same strains treated with 200 μM VK28.

Data set [5] concerns A. baumannii. Put plainly: Growth (OD600) with VK28 added at different times post-inoculation. It is filed as cell-based. As to conditions: 200 μM VK28 added at 0, 4, 8, 12, 16, 20 hr post-inoculation; low-iron M9. The protocol: A. baumannii was grown in low-iron M9 media and challenged with 200 μM VK28 at 0 hr (▪), 4 hr (▴), 8 hr (▪), 12 hr (▪), 16 hr (•), and 20 hr (▪) post-inoculation. Growth was estimated by absorbance at 600 nm every 4 hr for 24 hr.

In data set [6] the test system is Tetracycline-resistant A. baumannii. Kind of data set: Growth (OD600) with VK28, tetracycline or both. It is filed as cell-based. The source says:
Growth was estimated by absorbance at 600 nm at 24 hr. (y-axis).

Data set [7] has as its system Pseudomonas aeruginosa. Put plainly: Growth (OD600) with VK28 in M9 media with magnesium / calcium. The class given is cell-based. As to conditions: 24 hours. The protocol:
Pseudomonas aeruginosa was grown similar to as described in Example 21 in M9 media containing 2 mM MgSO4 for 24 hours in the presence of 0 μg/ml, 50 μg/ml, 100 μg/ml, or 200 μg/ml VK28. The OD600 was measured at 0, 4, and 24 hour and the results are shown in the time-kill curves of FIG. 20.
In this example, strains of MR Staphylococcus aureus (MRSA), Acinetobacter baumannii (Acinetobacter), Escherichia coli (E. coli), and Pseudomonas aeruginosa (Pseudomonas) were grown in M9 media in the presence of 2 mM MgSO4 and 1.35 mM CaCl2 for 24 hours in the presence or absence of 0 μg/ml, 50 μg/ml, 100 μg/ml, or 200 μg/ml of VK28. The OD600 was measured at 24 hour and the results are shown in the bar graph of FIG. 21.

Data set [8] is described as follows: Maximum systemic dose without adverse side-effects, extrapolated. As to conditions: human; systemic delivery; based on mouse and rat results. The protocol: The iron chelator is employed in an amount effective for the treatment and/or prevention of bacterial infection. The effective dosage seen in vitro is up to 2 mM based on molarity or up to 1 mg/mL. 2 mM or 1 mg/mL is an extremely high dosage for translating into in vivo. Previous experiments by Varinel Inc. have shown toxicity with VK28 at 30 mg/kg in a mouse or 70 mg/kg in a rat when delivered systemically/intravenously. […] Higher doses are suitable for topical administration. The iron chelator can present in an amount that is up to about 10% by weight, alternatively up to about 20% by weight of the topical composition. In some embodiments, the topical composition can comprise about 0.1% to about 20% of at least one iron chelator, alternatively about 1% to about 20%, alternatively about 5% to about 20%, alternatively about 5% to about 10%, and include, but are not limited to, for example, about 1%, about 2%, about 3%, about 4%, about 5%, about 6%, about 7%, about 8%, about 9%, about 10%, about 12%, about 15%, about 20%, and includes percentages and ranges there between and in increments of about 0.1%, about 0.25%, about 0.5%, about 1% and the like. Determination of an effective amount of VK28, or derivative thereof, to employ is well within the skill of one having ordinary skill in the art having knowledge of the teachings set forth herein.

Regarding `CNC(=O)c1c(O)c(=O)cc(C)n1C1CC1` [Apo6619, 1-cyclopropyl-3-hydroxy-6-methyl-4-oxo-1,4-dihydro-pyridine-2-carboxylic acid methylamide], the “growth (absorbance at 600 nm) at 24 hour” value in data set [1] is on record as “synergistic effect in inhibiting growth of AB19606”.
The compound `Cc1c(O)c(=O)ccn1C` [ApoL1, 3-hydroxy-1,2-dimethyl-4(1H)-pyridone] had an MIC in data set [2] of 600 to 700 µg/mL (≈ 4.31 to 5.03 mM). Further, the FIC is listed as 1.25 in data set [3] (PA 27853, in combination with Amikacin); 0.75 in data set [3] (PA 27853, in combination with Cefotaxine); 0.75 in data set [3] (PA 27853, in combination with Colisitin); 0.75 in data set [3] (PA 27853, in combination with Doxycycline); 0.75 in data set [3] (PA 27853, in combination with Rifampin); 0.75 in data set [3] (PA PAO1, in combination with Cefotaxine). Also, the FIC came to 0.75 in data set [3] (PA PAO1, in combination with Colisitin); 0.75 in data set [3] (PA PAO1, in combination with Doxycycline); 0.75 in data set [3] (PA PAO1, in combination with Rifampin).
With `OCCN1CCN(Cc2ccc(O)c3ncccc23)CC1` [VK28, 5-(4-(2-hydroxyethyl)piperazin-1-ylmethyl)-8-hydroxyquinoline], the “OD600 values (growth)” value in data set [4] is “greatly decreases the OD600 values”. Moreover, the “continued multiplication of bacteria (OD600)” value in data set [5] is “effective to halt the continued multiplication of bacteria”. In addition, the “reduction of bacteria (absorbance at 600 nm at 24 hr)” value was “the reduction in bacteria was greater than the added reductions from separate administration of tetracycline and VK28” in data set [6] (400 μM Vk28 in combination with 16 ug/mL tetracycline); “significant reduction in bacteria” in data set [6] (single agent: 400 μM Vk28 or 16 ug/mL tetracycline, low-iron M9). In addition, the “inhibition of growth (OD600)” value in data set [7] (M9 with 2 mM MgSO4, 50-200 μg/ml VK28) was “inhibition of growth of Pseudomonas aeruginosa is not reduced in the presence of magnesium”; in data set [7] (M9 with 2 mM MgSO4 and 1.35 mM CaCl2), “inhibition of growth of a number of strains of bacteria is not reduced in the presence of magnesium and calcium”. Moreover, in data set [8], the “maximum dose without adverse side-effects” value was “approximately 60 mg/kg”.

Broadly, the MIC is the least concentration at which growth counts as inhibited. Lower therefore signals a more susceptible organism.
